# Numbers after ± are expanded uncertainties.
# Columns and labels:
# [1] = for mass density: 101.33 kPa, Liquid, Vibrating tube method
# [2] = xn = mol fraction of the nth substance listed; conditions: x2 = 0
SMILES,surface tension liquid-gas ([1]; 293.15 K),mass density ([1]; 293.15 K),surface tension liquid-gas ([1]; 298.15 K),mass density ([1]; 298.15 K),surface tension liquid-gas ([1]; 303.15 K),mass density ([1]; 303.15 K),surface tension liquid-gas ([1]; 308.15 K),mass density ([1]; 308.15 K),surface tension liquid-gas ([2]; 293.15 K),surface tension liquid-gas ([2]; 298.15 K),surface tension liquid-gas ([2]; 303.15 K),surface tension liquid-gas ([2]; 308.15 K)
CCCC(=O)O [butanoic acid],26.73 ± 0.78 mN/m,957.61 ± 0.13 kg/m3,26.19 ± 0.77 mN/m,952.77 ± 0.13 kg/m3,25.56 ± 0.76 mN/m,947.94 ± 0.13 kg/m3,25.03 ± 0.75 mN/m,942.91 ± 0.13 kg/m3,–,–,–,–
CCCCCC(=O)O [hexanoic acid],28.12 ± 0.8 mN/m,925.38 ± 0.14 kg/m3,27.54 ± 0.79 mN/m,921.2 ± 0.14 kg/m3,27.12 ± 0.78 mN/m,917.02 ± 0.14 kg/m3,26.66 ± 0.78 mN/m,912.6 ± 0.14 kg/m3,–,–,–,–
CCCCC(=O)O [pentanoic acid],27.13 ± 0.79 mN/m,938.29 ± 0.3 kg/m3,26.8 ± 0.79 mN/m,933.9 ± 0.3 kg/m3,26.23 ± 0.78 mN/m,929.39 ± 0.3 kg/m3,25.8 ± 0.77 mN/m,924.73 ± 0.3 kg/m3,–,–,–,–
CCC(=O)O [propanoic acid],26.68 ± 0.78 mN/m,993.42 ± 0.12 kg/m3,26.11 ± 0.77 mN/m,988.21 ± 0.12 kg/m3,25.7 ± 0.76 mN/m,982.88 ± 0.12 kg/m3,25.16 ± 0.76 mN/m,977.43 ± 0.12 kg/m3,–,–,–,–
O [water] + CCC(=O)O,–,–,–,–,–,–,–,–,72.58 ± 1.4 mN/m,71.81 ± 1.4 mN/m,71.04 ± 1.4 mN/m,70.23 ± 1.4 mN/m
O [water] + CCCC(=O)O,–,–,–,–,–,–,–,–,72.58 ± 1.4 mN/m,71.81 ± 1.4 mN/m,71.04 ± 1.4 mN/m,70.23 ± 1.4 mN/m
O [water] + CCCCC(=O)O,–,–,–,–,–,–,–,–,72.58 ± 1.4 mN/m,71.81 ± 1.4 mN/m,71.04 ± 1.4 mN/m,70.23 ± 1.4 mN/m
O [water] + CCCCCC(=O)O,–,–,–,–,–,–,–,–,72.58 ± 1.4 mN/m,71.81 ± 1.4 mN/m,71.04 ± 1.4 mN/m,70.23 ± 1.4 mN/m

# From the NIST ThermoML archive (doi:10.1021/je1002829)
